Source: patent US20180305458A1, “METHODS AND PHARMACEUTICAL COMPOSITIONS FOR THE TREATMENT OF AUTOIMMUNE INFLAMMATORY DISEASES” (INSERM (INSTITUT NATIONAL DE LA SANTÉ ET DE LA RECHERCHE …, priority 2015, published 2018)

Assays:
Assay type in all cases: in vivo
[1] = test system: IFNγ and IL-17 gene expression; assay: Th1 (IFNγ) and Th17 (IL-17) cytokine gene expression in brain of EAE mice, RT-qPCR; conditions: 30 days after EAE induction, OxA 300 μg IP or RO, vs PBS
Method: FIG. 4. […] It was determined 30 days after EAE induction of PBS, OxA300 RO, and OxA300 IP mice (from FIG. 2, panel C) by real time RT-qPCR as previously described (Proc Natl Acad Sci USA. 106(6):2012-7, 2009). *P<0.05 (nonparametric t-test, compared to PBS group).

[2] = test system: EAE mice (C57BL/6 wild-type); assay: EAE (MOG35-55 induced) clinical score in mice; conditions: orexin A 100 or 300 μg per mouse for 5 days, IP or retro-orbital, before onset or at moderate EAE score, scale 0-5
Method: FIG. 2. […] EAE was induced with 100 μg of MOG35-55 (Myelin Oligodendrocyte Glycoprotein 35-55) as previously described (Proc Natl Acad Sci USA. 106(6):2012-7, 2009) to 9 week old female C57BL/6 wild-type (WT) mice (n=10/group). Panels show clinical signs of EAE scored daily in a blinded fashion for over 30 days on a scale of 0-5 as follows: 0, no detectable clinical signs, 1, waddling gait with limp tail, 2, ataxia with full paralysis of one limb, 3, full paralysis of two limbs, 4, full paralysis of two limbs with important weight loss (>20% of initial weight) and 5, moribund or dead. Then, mice were given:
Panel A, intraperitoneally (IP) either PBS (group PBS IP), 100 μg of orexin A per mouse for 5 days on day 3 (=before the onset, group BOxA100 IP) or at a moderate EAE score (=1.5-2 for group OxA100 IP).
Panel B, intraperitoneally either PBS (group PBS), 100 μg (group OxA100 IP) or 300 μg (group OxA300 IP) of orexin A per mouse for 5 days at a moderate EAE score (=1.5-2).
Panel C, either PBS (group PBS), 300 μg of orexin A per mouse intraperitoneally (group OxA300 IP) or retro-orbitally (RO) (group OxA300 RO) for 5 days at a moderate EAE score (=1.5-2).
The EAE score is shown as mean+/−SEM. *P<0.05 (nonparametric t-test, compared to PBS group).
Orexin A ameliorates the DAI (weight and colitis score) of DSS-induced colitis mice. […]

DSS-induced colitis mice = assay: DSS-induced colitis in mice, DAI score; conditions: 5% DSS orally 7 days, OxA 0.22 μmoles/kg daily intraperitoneal, scale 0 to 4
Source text: FIG. 1. Orexin A ameliorates the DAI (weight and colitis score) of DSS-induced colitis mice. Mice were orally treated with 5% DSS for 7 days in the presence or in the absence of daily intraperitoneal injection of OxA (0.22 μmoles/kg). DAI score including weight loss, severity of diarrhea, the presence of blood in the stool, inflammation and edema was estimated using a scale ranging from 0 (no symptoms) to 4 (severe colitis). DSS, dextran sulfate sodium; WT, wild type mice.
Orexin A ameliorates the DAI (weight and colitis score) of DSS-induced colitis mice. As shown in FIG. 1 when DSS-induced colitis mice were treated with OxA, the DAI score was ameliorated (about of 1.5). […] Therefore, orexin A presents potent intrinsic anti-inflammatory properties, capable of modulating the Th/Treg homeostasis during an auto-immune response as aggressive as in a chronic EAE model.

[3] = test system: chronic pancreatitis mice model induced by cerulein; assay: Cerulein-induced chronic pancreatitis mice model; conditions: OxA 1.40 μmol/Kg 2 ip injections/week
Source text: FIG. 7. Pancreatic lymphocyte infiltration determined by immunostaining of CD45+ cells. Values were expressed as percentage of stained surface. **, p<0.01
FIG. 8. Amylase activity in blood samples of control mice, cerulein-induced mice and cerulein-induced mice treated with OxA. *, p<0.05; ***, p<0.001 and NS=non-significant.
We have investigated the effect of orexin A (OxA) on chronic pancreatitis mice model induced by supraphysiologic doses of cerulein (3 intraperitoneal injections/week at 100 μg/kg). […] In mice treated by OxA (2 intraperitoneal injections/week at 1.40 μmol/Kg) the lesions induced by cerulein improved. OxA-treated mice had lower number of acino-ductal metaplasia.

regulatory T cell (Treg) = assay: Regulatory T cells in draining lymph nodes of EAE mice, flow cytometry; conditions: day 30 post-immunization, OxA 300 μg IP or RO, vs PBS
Method: FIG. 5. […] On day 30 post-immunization, draining lymph nodes were harvested from the naïve, PBS, OxA300 RO, and OxA300 IP groups (FIG. 2, panel C). Assessment by flow cytometry was performed by using the mouse regulatory T cell staining kit: lymph node Tregs were defined as CD4^+CD25^+Foxp3^+ cells and proliferative Tregs as CD4^+CD25^+Foxp3^+Ki67^+ cells.
Histograms represent the mean of the percentage (left) and the total number (right) of Tregs and proliferative Tregs (Ki67^+Tregs) for each group. Bars represent the mean+/−SEM of 5 individual mice. *P<0.05 (non parametric t-test, compared to PBS group).

EAE mice spinal cord = assay: Spinal cord histopathology of EAE mice; conditions: 30 days post-immunization, OxA 300 μg IP or RO, grading 0-4, vs PBS
Method: FIG. 3. […] 30 days post-immunization, mice (from the PBS, OxA300 RO, and OxA300 IP groups of FIG. 2, panel C) were sacrificed and spinal cords were harvested, fixed overnight in 4% paraformaldehyde and stored in 70% ethanol. Spinal cords were then embedded in paraffin and cut in […] section. After haematoxylin/eosin (to distinguish cell infiltration) and luxol fast blue (to label myelin) staining, photography was performed at ×1.25 and ×10 magnifications for the spinal cord sections of PBS, OxA300 RO and OxA300 IP mice. […] Histopathology grading was as follows: 0-normal appearance, 1—some infiltrated cells and low demyelination, 2—2 or 3 infiltrated areas and low demyelination, 3—numerous infiltrated areas and strong demyelination, 4—important cell infiltration throughout the tissue with strong demyelination. *P<0.05 (nonparametric t-test, compared to PBS group).

“Orexin A: neuropeptide, endogenous ligand of OX1R and OX2R; SEQ ID NO:2 peplpdccrqk tcscrlyell hgagnhaagi ltlx” was tested, and the “Th1/Th17 pro-inflammatory responses (IFNγ, IL-17 gene expression) in CNS tissues” value [1] was “efficiently suppresses”, the “Th1/Th17 pro-inflammatory responses (IFNγ, IL-17 gene expression) in CNS tissues” value ([1]; listed as orexin A) was “drastic reduction” and the “clinical features of EAE (EAE score)” value [2] was “dramatically alleviate”. The “clinical features of EAE (EAE score)” value ([2]; listed as orexin A) was “significantly ameliorated”, the “DAI score (weight and colitis score)” value (DSS-induced colitis mice) was “ameliorates” and the “DAI score (weight and colitis score)” value (DSS-induced colitis mice; listed as OxA) was roughly 1.5. For the same substance, the “lesions induced by cerulein (pancreas histology)” value ([3]; 3 weeks cerulein 100 μg/kg 3 ip injections/week) was “improved”, the “amylase activity in blood samples” value ([3]; cerulein mice) was “significantly reduced” and the “number of acino-ductal metaplasia” value ([3]; cerulein mice) was “lower number”. The “pancreatic lymphocyte infiltration (anti-CD45 immunohistochemistry)” value ([3]; cerulein mice, quantitative imaging analysis, 18% in OxA-untreated mice) was 6 % of the pancreatic surface, the “pancreatic fibrosis on Picrosirius staining” value ([3]; cerulein mice, quantitative imaging analysis, 40% in OxA-untreated mice) was 12 % of the pancreatic surface and the “regulatory T cell (Treg) proportion” value (regulatory T cell (Treg)) was “increased”. The “regulatory T cell (Treg) proportion” value (regulatory T cell (Treg); listed as orexin A) was “increase”, the “histopathological EAE score” value (EAE mice spinal cord) was “significantly decreases” and the “histopathological EAE score” value (EAE mice spinal cord; listed as orexin A) was “drastic reduction”.
